Measurements published in PMC12772312, “The MAB_3513c gene plays a key role in intrinsic resistance of Mycobacterium abscessus to isoniazid and ethionamide” (Microbiology Spectrum, 2025).

Legend:
[1] = target: T1, NudC (NudC^Mab; MAB_3513c) (Mycobacteroides abscessus, UniProt A0A0U1C370); assay: HPLC/MS of metabolite extracts, wild type versus nudC deletion strain; format: cell-based; details: adduct formed in cells from ethionamide (256 ug/mL, 3 h, 37 C); no purified enzyme assay
T1 construct: native full-length protein in M. abscessus cells, compared with isogenic nudC deletion; functional homodimer

[2] = target: the molecule itself; assay: SEC; HiLoad 16/600 Superdex 75 pg, 20 mM Tris-HCl (pH 7.5), 150 mM NaCl, 1 mM 1,4-dithiothreitol, 4°C, 1 mL/min; retention times compared to molecular weight standards

Molecule	HPLC/MS of metabolite extracts, wild type versus nudC deletion strain [1]	stoichiometry N [2]
CCc1cc(C(=O)C2C=CN([C@@H]3O[C@H](COP(=O)(O)OP(=O)(O)OC[C@H]4O[C@@H](n5cnc6c(N)ncnc65)[C@H](O)[C@@H]4O)[C@@H](O)[C@H]3O)C=C2C(N)=O)ccn1 (some centres unmarked) [ETH-NAD adduct]	nudC encodes a functional NudC that hydrolyzes ETH-NAD adduct	
Mycobacterium abscessus NADH pyrophosphatase NudC (MAB_3513c), wild type (enzyme, NADH pyrophosphatase NudC of Mycobacterium abscessus, gene MAB_3513c (nudC); The strain used in the study is M. abscessus subsp. abscessus GZ002 (genome GenBank CP034181); also called Wt NudC; source: E. coli BL21 (λDE3), pET-28a, purified (his-tag protein purification kit)) MTFRLRNIPLLSRVGLDRADELRSNPEELAKGWAEAGLITLDVRGRVNIVDGQVVIEDAARIGDQPPEHAVFLGRIPGGRHVWAVRADLDEDSAPLLDLRRSGQLFDDTSAALLATAMAMLAWHDNAGYSPVDGSPTIPAKGGWVRVNSATGQEEFPRTDPAIICLVHDGGDRAVLGRQKFWPERMFSLLAGFVEAGESLEACVAREVAEEVGLTVTDVQYLGSQPWPFPRSIMLGFHAIGDPSQPFAFNDGEIAEADWFTRAEVRSALEAGDWTTASDSRLMLPGSISIAREIVESWAYAGEEPPAGRP		2
